# Measurements from ChEMBL document CHEMBL3885861, “Open TG-GATES”.
# Species: Rattus norvegicus
# Experiment: Open TG-GATES - Regimen: Single
# Format: toxicity, organism-based, Sprague-Dawley
# Parameters: regimen Single, gender Male, age 6 weeks
# Details: in vivo, po, 150 mg/kg, route gavage, dose level High; for APTT / Bas / Eos / Fbg / Hb / Ht / Lym / MCH / MCHC / MCV / Mono / Neu / PT / Plat / RBC / Ret / WBC: tissue Blood; for KIDNEY_L / KIDNEY_R / KIDNEY_TOTAL: tissue Kidney; for LIVER: tissue Liver; for ALP / ALT / AST / BUN / CRE / Ca / DBIL / GLC / K / LDH / Na / PL / RALB / TBIL / TC / TG / TP / gamma-GTP / IP: tissue Plasma
structure (smiles),measurement,setting,value
Oc1ncnc2[nH]ncc12 [ALLOPURINOL],APTT,3 h,16.8 s
same,Bas,3 h,0%
same,Eos,3 h,0.8%
same,Fbg,3 h,220.2 mg/dL
same,Hb,3 h,13.9 g/dL
same,Ht,3 h,41.3%
same,Lym,3 h,75%
same,MCH,3 h,21.7 pg
same,MCHC,3 h,33.6%
same,MCV,3 h,64.6 fL
same,Mono,3 h,10%
same,Neu,3 h,14%
same,PT,3 h,12.4 s
same,Plat,3 h,112 x10_4/uL
same,RBC,3 h,640.6 x10_4/ul
same,Ret,3 h,8.1%
same,WBC,3 h,82 x10_2/uL
same,KIDNEY_L,3 h,1.1 g
same,KIDNEY_R,3 h,1.1 g
same,KIDNEY_TOTAL,3 h,2.2 g
same,LIVER,3 h,9.9 g
same,ALP,3 h,830.8 IU/L
same,ALT,3 h,34.6 IU/L
same,AST,3 h,63.8 IU/L
same,BUN,3 h,13 mg/dL
same,CRE,3 h,0.5 mg/dL
same,Ca,3 h,11.1 mg/dL
same,DBIL,3 h,0.046 mg/dL
same,GLC,3 h,191.8 mg/dL
same,K,3 h,4.7 meq/L
same,LDH,3 h,160.4 IU/L
same,Na,3 h,140.2 meq/L
same,PL,3 h,129.8 mg/dL
same,RALB,3 h,3.8 g/dL
same,TBIL,3 h,0.4 mg/dL
same,TC,3 h,75.8 mg/dL
same,TG,3 h,36.6 mg/dL
same,TP,3 h,5.6 g/dL
same,gamma-GTP,3 h,1.6 IU/L
same,TERMINAL_BW,6 h,208.4 g
same,APTT,6 h,16.2 s
same,Bas,6 h,0%
same,Eos,6 h,0.6%
same,Fbg,6 h,227.4 mg/dL
same,Hb,6 h,14.1 g/dL
same,Ht,6 h,42.2%
same,Lym,6 h,64.8%
same,MCH,6 h,21.8 pg
same,MCHC,6 h,33.5%
same,MCV,6 h,65.1 fL
same,Mono,6 h,6.6%
same,Neu,6 h,28%
same,PT,6 h,12.3 s
same,RBC,6 h,648.6 x10_4/ul
same,Ret,6 h,7.8%
same,WBC,6 h,115.3 x10_2/uL
same,KIDNEY_L,6 h,1 g
same,KIDNEY_R,6 h,1 g
same,KIDNEY_TOTAL,6 h,2.1 g
same,LIVER,6 h,9.5 g
same,ALP,6 h,1127.2 IU/L
same,ALT,6 h,29 IU/L
same,AST,6 h,61.6 IU/L
same,BUN,6 h,16.2 mg/dL
same,CRE,6 h,0.5 mg/dL
same,Ca,6 h,11.6 mg/dL
same,DBIL,6 h,0.016 mg/dL
same,GLC,6 h,191.6 mg/dL
same,K,6 h,4.9 meq/L
same,LDH,6 h,149 IU/L
same,Na,6 h,140.8 meq/L
same,PL,6 h,134.6 mg/dL
same,RALB,6 h,3.9 g/dL
same,TBIL,6 h,0.3 mg/dL
same,TC,6 h,72 mg/dL
same,TG,6 h,47 mg/dL
same,TP,6 h,5.7 g/dL
same,gamma-GTP,6 h,0.8 IU/L
same,TERMINAL_BW,9 h,205 g
same,APTT,9 h,16.9 s
same,Bas,9 h,0%
same,Eos,9 h,0.8%
same,Fbg,9 h,230.2 mg/dL
same,Hb,9 h,14.1 g/dL
same,Ht,9 h,42.1%
same,Lym,9 h,65.4%
same,MCH,9 h,21.4 pg
same,MCHC,9 h,33.6%
same,MCV,9 h,63.6 fL
same,Mono,9 h,5.4%
same,Neu,9 h,28.6%
same,PT,9 h,12.3 s
same,Plat,9 h,110.4 x10_4/uL
same,RBC,9 h,662.2 x10_4/ul
same,Ret,9 h,8.1%
same,WBC,9 h,82.6 x10_2/uL
same,KIDNEY_L,9 h,1.1 g
same,KIDNEY_R,9 h,1.1 g
same,KIDNEY_TOTAL,9 h,2.2 g
same,LIVER,9 h,9 g
same,ALP,9 h,832.2 IU/L
same,ALT,9 h,26 IU/L
same,AST,9 h,62.2 IU/L
same,BUN,9 h,18.8 mg/dL
same,CRE,9 h,0.5 mg/dL
same,Ca,9 h,11.1 mg/dL
same,DBIL,9 h,0.028 mg/dL
same,GLC,9 h,199.2 mg/dL
same,IP,9 h,11.6 mg/dL
same,K,9 h,4.7 meq/L
same,LDH,9 h,162.2 IU/L
same,Na,9 h,140.4 meq/L
same,PL,9 h,151 mg/dL
same,RALB,9 h,3.9 g/dL
same,TBIL,9 h,0.4 mg/dL
same,TC,9 h,80 mg/dL
same,TG,9 h,53 mg/dL
same,TP,9 h,5.9 g/dL
same,gamma-GTP,9 h,1.8 IU/L
same,TERMINAL_BW,24 h,220.7 g
same,APTT,24 h,16.2 s
same,Bas,24 h,0%
same,Eos,24 h,1.2%
same,Fbg,24 h,319.8 mg/dL
same,Hb,24 h,13.8 g/dL
same,Ht,24 h,41%
same,Lym,24 h,70.6%
same,MCH,24 h,21.9 pg
same,MCHC,24 h,33.6%
same,MCV,24 h,65.1 fL
same,Mono,24 h,9.8%
same,Neu,24 h,18.2%
same,PT,24 h,12.1 s
same,Plat,24 h,118.1 x10_4/uL
same,RBC,24 h,629.4 x10_4/ul
same,Ret,24 h,7.5%
same,WBC,24 h,99.2 x10_2/uL
same,KIDNEY_L,24 h,1.2 g
same,KIDNEY_R,24 h,1.3 g
same,KIDNEY_TOTAL,24 h,2.5 g
same,ALP,24 h,923.6 IU/L
same,ALT,24 h,28.4 IU/L
same,AST,24 h,61.8 IU/L
same,BUN,24 h,24.8 mg/dL
same,CRE,24 h,0.6 mg/dL
same,Ca,24 h,11.2 mg/dL
same,DBIL,24 h,0.048 mg/dL
same,GLC,24 h,196 mg/dL
same,IP,24 h,9 mg/dL
same,K,24 h,4.7 meq/L
same,LDH,24 h,157 IU/L
same,Na,24 h,139.8 meq/L
same,PL,24 h,159.6 mg/dL
same,RALB,24 h,3.8 g/dL
same,TBIL,24 h,0.3 mg/dL
same,TC,24 h,90.6 mg/dL
same,TG,24 h,87.2 mg/dL
same,TP,24 h,6 g/dL
same,gamma-GTP,24 h,2 IU/L
